Blank lines part the entries; values can stand above or below the compound they belong to.
How the values were obtained:
[1] = biological target: Serine/threonine-protein kinase NIM1 (Homo sapiens, UniProt Q8IY84); test: Selectivity interaction (KinomeScan (DiscoverX)) EUB0000655a NIM1K; conditions: at 10 µM
[2] = biological target: T1, Mitogen-activated protein kinase 12 (Homo sapiens) (UniProt P53778); test: Selectivity interaction (KinomeScan (DiscoverX)) EUB0000655a MAPK12; conditions: at 10 µM
T1 sequence (whole entry): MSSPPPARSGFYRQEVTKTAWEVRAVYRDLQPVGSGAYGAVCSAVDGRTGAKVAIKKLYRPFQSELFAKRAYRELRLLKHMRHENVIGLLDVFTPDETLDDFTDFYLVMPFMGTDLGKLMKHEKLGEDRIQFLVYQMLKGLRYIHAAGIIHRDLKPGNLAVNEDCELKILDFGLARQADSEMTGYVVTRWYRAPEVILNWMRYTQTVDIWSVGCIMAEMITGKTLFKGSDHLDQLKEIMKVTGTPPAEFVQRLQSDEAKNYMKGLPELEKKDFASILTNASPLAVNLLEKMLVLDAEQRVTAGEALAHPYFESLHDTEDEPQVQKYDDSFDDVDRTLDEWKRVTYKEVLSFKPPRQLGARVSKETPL

[3] = biological target: T1, Mitogen-activated protein kinase 12 (Homo sapiens); test: Selectivity interaction (KinomeScan (DiscoverX)) EUB0001079a MAPK12; conditions: at 1 µM
[4] = biological target: Serine/threonine-protein kinase 32A (Homo sapiens) (UniProt Q8WU08); test: Selectivity interaction (KinomeScan (DiscoverX)) EUB0001079a STK32A; conditions: at 1 µM
Sequence of Serine/threonine-protein kinase 32A (Homo sapiens) (Q8WU08 whole entry): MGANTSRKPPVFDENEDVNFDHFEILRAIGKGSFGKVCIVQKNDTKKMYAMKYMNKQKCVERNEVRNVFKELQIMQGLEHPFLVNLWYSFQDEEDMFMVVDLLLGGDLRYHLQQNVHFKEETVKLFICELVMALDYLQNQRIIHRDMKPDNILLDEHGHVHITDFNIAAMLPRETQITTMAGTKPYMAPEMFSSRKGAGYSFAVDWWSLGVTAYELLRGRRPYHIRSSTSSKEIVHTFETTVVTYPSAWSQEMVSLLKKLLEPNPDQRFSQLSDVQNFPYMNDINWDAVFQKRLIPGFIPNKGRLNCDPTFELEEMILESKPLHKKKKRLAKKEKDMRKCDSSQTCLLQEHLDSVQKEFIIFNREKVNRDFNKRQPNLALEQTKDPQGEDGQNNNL

[5] = biological target: Proto-oncogene tyrosine-protein kinase Src (Homo sapiens, UniProt P12931); test: Selectivity interaction (Millipore kinase profiler) EUB0000124b SRC; conditions: at 10 µM
[6] = biological target: Fibroblast growth factor receptor 4 (Homo sapiens, UniProt P22455); test: Selectivity interaction (KinomeScan (DiscoverX)) EUB0000618a FGFR4; conditions: at 10 µM
Sequence of Fibroblast growth factor receptor 4 (P22455 22-802 limits assumed): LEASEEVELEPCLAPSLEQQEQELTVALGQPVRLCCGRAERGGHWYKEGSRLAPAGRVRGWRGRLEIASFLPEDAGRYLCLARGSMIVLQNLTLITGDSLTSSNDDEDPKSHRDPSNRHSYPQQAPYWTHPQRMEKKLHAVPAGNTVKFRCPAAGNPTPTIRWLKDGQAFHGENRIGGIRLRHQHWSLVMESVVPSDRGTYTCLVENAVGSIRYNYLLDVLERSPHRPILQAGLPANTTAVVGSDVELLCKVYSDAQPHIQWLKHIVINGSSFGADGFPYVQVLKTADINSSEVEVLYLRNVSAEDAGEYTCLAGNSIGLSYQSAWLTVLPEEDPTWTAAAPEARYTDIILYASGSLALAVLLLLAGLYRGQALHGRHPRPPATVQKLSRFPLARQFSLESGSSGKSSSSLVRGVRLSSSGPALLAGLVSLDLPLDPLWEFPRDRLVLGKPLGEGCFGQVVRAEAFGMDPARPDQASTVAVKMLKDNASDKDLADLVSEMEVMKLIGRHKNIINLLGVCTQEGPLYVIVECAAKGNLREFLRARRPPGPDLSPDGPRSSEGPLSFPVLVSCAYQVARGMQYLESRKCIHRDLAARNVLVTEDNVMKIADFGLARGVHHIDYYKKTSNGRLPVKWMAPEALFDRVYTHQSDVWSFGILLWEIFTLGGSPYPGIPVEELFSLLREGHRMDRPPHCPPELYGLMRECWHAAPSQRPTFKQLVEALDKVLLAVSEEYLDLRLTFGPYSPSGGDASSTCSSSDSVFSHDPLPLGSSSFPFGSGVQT

[7] = biological target: Tyrosine-protein kinase BTK (Homo sapiens, UniProt Q06187); conditions: at 10 µM
Sequence of Tyrosine-protein kinase BTK (Q06187 whole entry): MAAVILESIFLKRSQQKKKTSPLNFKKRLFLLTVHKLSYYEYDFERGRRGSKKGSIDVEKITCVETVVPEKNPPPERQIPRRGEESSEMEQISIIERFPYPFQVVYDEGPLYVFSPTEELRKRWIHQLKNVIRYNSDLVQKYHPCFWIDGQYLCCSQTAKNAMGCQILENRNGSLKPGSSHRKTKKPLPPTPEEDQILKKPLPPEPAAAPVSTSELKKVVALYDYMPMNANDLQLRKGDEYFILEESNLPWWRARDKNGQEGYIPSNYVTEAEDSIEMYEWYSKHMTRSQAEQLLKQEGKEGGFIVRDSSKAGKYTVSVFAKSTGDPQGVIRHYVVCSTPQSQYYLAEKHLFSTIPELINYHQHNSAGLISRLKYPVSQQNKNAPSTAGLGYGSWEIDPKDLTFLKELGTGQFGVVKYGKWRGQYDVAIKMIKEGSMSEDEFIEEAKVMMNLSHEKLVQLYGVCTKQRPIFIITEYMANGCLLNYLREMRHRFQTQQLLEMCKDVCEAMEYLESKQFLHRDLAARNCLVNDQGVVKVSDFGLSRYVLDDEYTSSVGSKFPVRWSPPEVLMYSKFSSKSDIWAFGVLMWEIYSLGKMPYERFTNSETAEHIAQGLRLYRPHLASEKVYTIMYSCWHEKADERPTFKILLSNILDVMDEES

[8] = biological target: T2, Serine/threonine-protein kinase tousled-like 1 (Homo sapiens) (UniProt Q9UKI8); test: Selectivity interaction (Kinase panel (KiNativ target engagement assay in Jurkat cells)) EUB0001635a TLK1; assay type: cell-based; conditions: at 1 µM
T2 sequence (whole entry): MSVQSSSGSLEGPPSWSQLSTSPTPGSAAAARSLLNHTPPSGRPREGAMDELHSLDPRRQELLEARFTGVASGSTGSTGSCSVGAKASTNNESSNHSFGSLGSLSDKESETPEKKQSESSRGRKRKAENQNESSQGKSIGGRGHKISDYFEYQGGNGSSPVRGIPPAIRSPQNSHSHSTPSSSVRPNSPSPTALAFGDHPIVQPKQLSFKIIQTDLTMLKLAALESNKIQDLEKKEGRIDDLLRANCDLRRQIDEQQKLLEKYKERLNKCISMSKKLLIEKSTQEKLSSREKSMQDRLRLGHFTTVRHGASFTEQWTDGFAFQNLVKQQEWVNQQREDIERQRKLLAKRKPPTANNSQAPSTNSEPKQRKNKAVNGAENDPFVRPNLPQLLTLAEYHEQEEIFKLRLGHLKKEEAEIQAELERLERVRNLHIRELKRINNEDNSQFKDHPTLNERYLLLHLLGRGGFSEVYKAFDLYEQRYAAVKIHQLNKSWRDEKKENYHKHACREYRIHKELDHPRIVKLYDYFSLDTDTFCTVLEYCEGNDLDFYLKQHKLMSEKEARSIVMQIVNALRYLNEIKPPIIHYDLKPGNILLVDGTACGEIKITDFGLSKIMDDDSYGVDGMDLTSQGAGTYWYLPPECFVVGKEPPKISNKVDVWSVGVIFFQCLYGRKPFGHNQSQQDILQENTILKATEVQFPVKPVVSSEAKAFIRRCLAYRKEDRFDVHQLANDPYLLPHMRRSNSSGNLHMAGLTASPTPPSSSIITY

[9] = biological target: Tau-tubulin kinase 1 (Homo sapiens) (UniProt Q5TCY1); test: Selectivity interaction (ProQinase) EUB0000171b TTBK1
Sequence of Tau-tubulin kinase 1 (Homo sapiens) (Q5TCY1 whole entry): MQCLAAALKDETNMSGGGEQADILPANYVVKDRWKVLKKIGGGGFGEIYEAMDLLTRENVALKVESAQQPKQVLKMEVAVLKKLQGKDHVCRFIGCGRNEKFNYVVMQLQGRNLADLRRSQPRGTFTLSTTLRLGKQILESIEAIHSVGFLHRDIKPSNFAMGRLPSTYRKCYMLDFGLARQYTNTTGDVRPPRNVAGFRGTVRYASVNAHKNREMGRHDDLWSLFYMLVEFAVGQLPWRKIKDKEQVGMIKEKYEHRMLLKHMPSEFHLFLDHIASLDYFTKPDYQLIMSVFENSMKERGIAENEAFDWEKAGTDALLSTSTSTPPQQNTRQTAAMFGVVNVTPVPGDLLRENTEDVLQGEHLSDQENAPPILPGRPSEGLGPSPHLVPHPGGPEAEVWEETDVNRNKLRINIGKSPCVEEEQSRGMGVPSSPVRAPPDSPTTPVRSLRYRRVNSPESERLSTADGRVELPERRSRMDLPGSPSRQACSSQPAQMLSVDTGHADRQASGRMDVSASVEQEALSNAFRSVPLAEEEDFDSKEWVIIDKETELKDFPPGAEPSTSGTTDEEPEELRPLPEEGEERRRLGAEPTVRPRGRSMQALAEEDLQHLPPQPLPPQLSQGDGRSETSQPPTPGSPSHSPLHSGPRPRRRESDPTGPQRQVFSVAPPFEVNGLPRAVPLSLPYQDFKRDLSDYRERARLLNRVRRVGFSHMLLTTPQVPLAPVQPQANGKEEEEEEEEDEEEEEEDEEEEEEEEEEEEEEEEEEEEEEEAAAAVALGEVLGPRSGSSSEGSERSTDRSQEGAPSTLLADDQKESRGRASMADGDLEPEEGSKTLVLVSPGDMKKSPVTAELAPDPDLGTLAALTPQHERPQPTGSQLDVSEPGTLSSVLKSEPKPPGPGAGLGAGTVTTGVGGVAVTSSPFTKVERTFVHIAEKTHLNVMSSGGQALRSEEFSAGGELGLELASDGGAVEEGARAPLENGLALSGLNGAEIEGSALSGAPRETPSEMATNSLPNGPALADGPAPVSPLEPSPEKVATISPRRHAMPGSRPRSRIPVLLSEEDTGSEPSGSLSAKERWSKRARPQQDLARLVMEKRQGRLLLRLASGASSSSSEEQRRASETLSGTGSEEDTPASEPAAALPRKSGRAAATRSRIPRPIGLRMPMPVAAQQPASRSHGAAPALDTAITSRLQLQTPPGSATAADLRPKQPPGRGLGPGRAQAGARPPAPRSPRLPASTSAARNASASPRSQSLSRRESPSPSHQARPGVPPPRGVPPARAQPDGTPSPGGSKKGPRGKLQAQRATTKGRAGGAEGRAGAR

[10] = biological target: T3, Ephrin type-B receptor 3 (Homo sapiens) (UniProt P54753); test: Selectivity interaction (KinomeScan (DiscoverX)) EUB0000092b EPHB3; conditions: at 10 µM
T3 sequence (whole entry): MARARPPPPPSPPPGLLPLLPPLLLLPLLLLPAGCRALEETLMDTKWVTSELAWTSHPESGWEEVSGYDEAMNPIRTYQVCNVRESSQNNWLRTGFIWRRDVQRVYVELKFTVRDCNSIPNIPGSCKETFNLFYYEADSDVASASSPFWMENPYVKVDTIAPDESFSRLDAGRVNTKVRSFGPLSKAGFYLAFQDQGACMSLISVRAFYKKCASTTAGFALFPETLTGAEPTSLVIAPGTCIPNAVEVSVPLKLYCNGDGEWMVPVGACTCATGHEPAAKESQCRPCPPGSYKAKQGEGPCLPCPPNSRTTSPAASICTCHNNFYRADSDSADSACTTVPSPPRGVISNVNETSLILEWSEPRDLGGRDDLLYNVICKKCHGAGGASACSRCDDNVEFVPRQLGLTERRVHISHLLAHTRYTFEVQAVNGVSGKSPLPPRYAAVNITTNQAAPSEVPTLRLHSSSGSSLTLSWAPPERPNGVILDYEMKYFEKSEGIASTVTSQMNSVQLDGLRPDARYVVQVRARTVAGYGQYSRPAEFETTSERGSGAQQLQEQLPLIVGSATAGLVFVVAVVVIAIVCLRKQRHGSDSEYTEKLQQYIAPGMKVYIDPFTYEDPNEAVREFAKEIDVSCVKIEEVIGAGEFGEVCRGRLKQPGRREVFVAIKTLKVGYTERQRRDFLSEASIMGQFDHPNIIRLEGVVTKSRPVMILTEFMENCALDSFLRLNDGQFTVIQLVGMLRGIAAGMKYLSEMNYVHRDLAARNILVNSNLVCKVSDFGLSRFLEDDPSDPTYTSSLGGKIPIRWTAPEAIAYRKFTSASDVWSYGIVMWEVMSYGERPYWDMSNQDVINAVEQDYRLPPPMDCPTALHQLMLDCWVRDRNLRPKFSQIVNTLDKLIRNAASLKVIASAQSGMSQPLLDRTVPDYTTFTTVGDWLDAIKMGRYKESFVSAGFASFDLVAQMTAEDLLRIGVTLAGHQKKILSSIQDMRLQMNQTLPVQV

Ephrin type-A receptor 4 = Ephrin type-A receptor 4 (Homo sapiens, UniProt P54764); test: Selectivity interaction (KinomeScan (DiscoverX)) EUB0000092b EPHA4; conditions: at 10 µM
Sequence of Ephrin type-A receptor 4 (P54764 whole entry): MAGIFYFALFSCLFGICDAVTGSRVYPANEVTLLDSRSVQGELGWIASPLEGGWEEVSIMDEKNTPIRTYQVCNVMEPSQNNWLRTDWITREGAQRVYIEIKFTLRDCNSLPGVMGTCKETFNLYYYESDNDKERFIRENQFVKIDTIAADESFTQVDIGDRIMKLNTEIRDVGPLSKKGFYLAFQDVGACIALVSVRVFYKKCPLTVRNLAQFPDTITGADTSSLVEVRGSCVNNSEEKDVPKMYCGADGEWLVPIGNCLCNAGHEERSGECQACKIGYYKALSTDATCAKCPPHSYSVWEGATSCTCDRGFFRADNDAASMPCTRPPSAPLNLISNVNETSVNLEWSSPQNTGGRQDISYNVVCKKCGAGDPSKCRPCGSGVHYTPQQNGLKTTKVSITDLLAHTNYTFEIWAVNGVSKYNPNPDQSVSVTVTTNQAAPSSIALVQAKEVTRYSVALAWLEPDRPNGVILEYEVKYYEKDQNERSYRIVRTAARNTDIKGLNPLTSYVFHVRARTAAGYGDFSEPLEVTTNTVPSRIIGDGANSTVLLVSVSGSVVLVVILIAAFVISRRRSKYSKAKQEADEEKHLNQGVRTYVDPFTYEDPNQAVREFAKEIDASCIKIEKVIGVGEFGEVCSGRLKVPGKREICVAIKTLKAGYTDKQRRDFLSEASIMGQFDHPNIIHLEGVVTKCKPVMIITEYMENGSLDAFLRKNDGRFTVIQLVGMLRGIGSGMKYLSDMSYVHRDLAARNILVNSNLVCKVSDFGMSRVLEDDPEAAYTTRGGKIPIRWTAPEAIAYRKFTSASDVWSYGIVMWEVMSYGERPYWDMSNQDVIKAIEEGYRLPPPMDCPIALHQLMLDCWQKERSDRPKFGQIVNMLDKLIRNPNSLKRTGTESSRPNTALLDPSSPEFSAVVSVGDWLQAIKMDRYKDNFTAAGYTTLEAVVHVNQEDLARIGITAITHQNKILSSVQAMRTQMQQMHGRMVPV

Sequence of Serine/threonine-protein kinase NIM1 (Q8IY84 whole entry): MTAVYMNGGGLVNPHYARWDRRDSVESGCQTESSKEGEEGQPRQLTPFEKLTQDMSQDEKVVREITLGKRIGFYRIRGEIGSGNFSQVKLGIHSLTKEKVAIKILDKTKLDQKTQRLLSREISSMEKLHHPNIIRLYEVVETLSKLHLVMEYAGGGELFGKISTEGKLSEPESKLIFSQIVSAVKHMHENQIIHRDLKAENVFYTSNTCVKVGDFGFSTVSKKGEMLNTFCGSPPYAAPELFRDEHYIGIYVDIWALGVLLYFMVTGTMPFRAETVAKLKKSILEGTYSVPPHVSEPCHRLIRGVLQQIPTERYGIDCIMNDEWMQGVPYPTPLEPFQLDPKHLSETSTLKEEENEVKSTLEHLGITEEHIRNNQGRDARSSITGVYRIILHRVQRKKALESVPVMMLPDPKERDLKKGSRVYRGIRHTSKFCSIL

SMILES: CN(C)CCOc1ccc(-c2nc(-c3ccncc3)c(-c3ccc4c(c3)CC/C4=N\O)[nH]2)cc1
% of control [1]: 91% | % of control [2]: 77%

SMILES: Nc1cnc(N2CCc3cc(S(=O)(=O)Nc4c(F)cc(Cl)cc4F)cc(N4CCCC4=O)c32)nc1 [TP-020n]
% of control [3]: 100% | % of control [4]: 80%

% of control [5]: 82%
SMILES: CC(=O)Nc1cccc(-n2c(=O)n(C3CC3)c(=O)c3c(Nc4ccc(I)cc4F)n(C)c(=O)c(C)c32)c1

SMILES: O[C@H]1CC[C@H](Nc2ncc3nc(Nc4c(F)cc(F)cc4F)n([C@H]4CCOC4)c3n2)CC1
% of control [6]: 74%

SMILES: C=CC(=O)Nc1cc(-n2c(=O)ccc3cnc4ccc(-c5ccc(NS(C)(=O)=O)cc5)cc4c32)ccc1C
% of control [7]: 0.7%

SMILES: C=CC(=O)Nc1ccc(C(=O)Nc2[nH]nc3c2CN(C(=O)N[C@H](CN(C)C)c2ccccc2)C3(C)C)cc1
% of engagement ([8]; Selectivity number of off-targets 0.0, Selectivity number of targets 233.0, Source Knowledge https://www.sciencedirect.com/science/article/pii/S2451945619300674?via%3Dihub): 12.6% | % of engagement [8]: 13.2%

% of control ([9]; at 1 µM): 102% | % of control ([9]; at 5 µM): 106%
SMILES: C=CC(=O)Nc1cccc(C(=O)Nc2ccc(Nc3cc(-c4[nH]c(SC)nc4C)ccn3)cc2)c1

SMILES: CCC(=O)N1CCN(c2ccc(-n3c(=O)ccc4cnc5ccc(-c6cnc7ccccc7c6)cc5c43)cc2C(F)(F)F)CC1
% of control [10]: 85% | % of control (Ephrin type-A receptor 4): 90%

From ChEMBL document CHEMBL5465560, “Selectivity Literature for EUbOPEN Chemogenomic Library” (2024)
